Reference: US8097585B2, “Methods of treating inflammation by administration of heme oxygenase-1 and products of heme degradation” (priority 2002, dated 2012)
Structures can show the parent of a compound that is named as a salt.

Tests used:
DSS-colitis = DSS-colitis (acute colitis) mouse model: weight loss, DAI, symptoms, crypt score; type: in vivo, C57BL/6 mice; settings: for mean time to development of loose stool / mean time to bleeding: Kaplan-Meier; for mean time to development of loose stool: non-treated 3 days; for mean time to bleeding: non-treated 5.1 days; for colon histology (cryptal structure): day 7, light microscopy; for crypt score: day 7, non-treatment group 4.8; for disease activity index (DAI): i.p. daily (CoPPIX 5 mg/kg; biliverdin 50 μmol/kg)
Description: Animals. Pathogen-free male C57BL/6 mice, 4-6 weeks of age (Taconic; C57BL/6×129 svj strain) were used in this example. Mice were kept for one week at 4 mice/cage and fed normal laboratory chow and drinking water ad libitum prior to the experiments. All mice weighed between 22.5 g and 27.7 g at the beginning of the trial. The animal experimentation protocol was reviewed and approved by the Animal Care and Use Committees of the Beth Israel Deaconess Medical Center.
Induction of Colitis. Colitis was induced by feeding mice 5% (wt/v) dextran sodium sulfate (DSS) (MW 40,000; ICN Biomedicals Inc., OH), dissolved in distilled water, for a period of 7 days. The resulting condition was termed “DSS-colitis.” Control animals were fed distilled water ad libitum. The mortality rate in the control group and the CO-treated group was 10% (2/20) and 14% (2/14), respectively. These animals were excluded from the statistical analysis. In the other groups, no mortality occurred during 7 days of 5% DSS treatment.
Experimental Reagents and Treatment Protocol. Cobalt protoporphyrin (CoPPIX), zinc protoporphyrin (ZnPPIX, Porphyrin Products, Logan, Utah) and biliverdin dihydrochloride (ICN Biomedicals Inc., OH) were dissolved in a small amount 0.2 M NaOH, subsequently adjusted to a pH of 7.4 with 1 M HCl, and diluted in 0.9% NaCl. The stock solutions (CoPPIX and ZnPPIX=1 mg/ml, biliverdin=10 mM) were aliquoted and kept at −70° C. until used. Light exposure was limited as much as possible. CoPPIX (5 mg/kg), ZnPPIX (20 mg/kg) and biliverdin (50 μmol/kg) were administered to the mice intraperitoneally (i.p.) 24 hours before induction of DSS-colitis and daily thereafter. Desferoxamine (DFO) was prepared in imidazole buffer (50 mM imidazole, 220 mM NaCl, pH 7.4). DFO was injected subcutaneously (s.c.) twice daily (125 mg/kg) or infused i.p. (130 mg/kg/day; pumping rate 0.5 μl/hour for 8 days) by miniosmotic Alzet™ pumps (Alza Corporation, Palo Alto, Calif.) (Postma et al., Exp. Parasitol. 89(3):323-30 1998). The pumps were installed i.p. 24 hours before induction of colitis. When animals were sacrificed at day 7 of DSS treatment, the pumps were removed and evaluated to determine if DFO application had taken place.
CO gas was administrated exogenously by putting animals in a CO exposure chamber (Otterbein et al., Nat. Med. 6(4):422-8, 2000). Briefly, CO at a concentration of 1% (10,000 parts per million (ppm)) in compressed air was mixed with balanced air (21% oxygen) in a stainless steel mixing cylinder before entering the exposure chamber. CO concentrations were controlled by varying the flow rates of CO in a mixing cylinder before delivery to the chamber. Because the flow rate is primarily determined by the O2 flow, only the CO flow was changed to deliver the final concentration to the exposure chamber. A CO analyzer (Interscan Corporation, Chatsworth, Calif.) was used to measure CO levels continuously in the chamber. Mice were placed in the chamber 24 hours before the induction of the colitis and were kept in the exposure chamber during the whole period of the experiment (total of 8 days). […] Animals were removed daily from the chamber to assess weight and stool.
Evaluation of Symptoms of Colitis. All animals were evaluated clinically on a daily basis. The evaluation of each animal included a measurement of weight, hemoccult positivity and examination of stool for the presence of gross blood and stool consistency. The disease activity index (DAI) was calculated by scoring percent weight loss, intestinal bleeding (no blood; occult blood=hemoccult+; gross blood) and stool consistency (normal stool=well-formed pellets; loose stool=pasty and semiformed stools; diarrhea=liquid stool that stuck to the anus) (Table 1).
The animals were sacrificed, and the whole colon from the colo-cecal junction to the anal verge was removed and gently cleaned of stool. […]

[1] = system: DBA/2 islets in diabetic B6AF1 recipients; assay: Allogeneic islet transplantation, graft survival and tolerance test; type: in vivo, mice
Protocol: Animals. Male DBA/2, B6AF1 and DBA/1 mice 6-8 week of age (Jackson) are used in the experiments. Mice were kept for 2 weeks at 4 mice/cage and fed normal laboratory chow before using for the experiment.
Treatment protocol. Recipients were rendered diabetic using streptozotocin (STZ, 225 mg/kg). Five days after STZ administration, animals with two consecutive blood glucose levels exceeding 350 mg/dl are used as recipients. Islets (500) are transplanted under the kidney capsule of the recipients.
Reagents. Cobalt protoporphyrin (CoPPIX, Porphyrin Products, Logan, Utah), biliverdin dihydrochloride and bilirubin (ICN Biomedicals Inc., OH) were dissolved in a small amount of 0.2 M NaOH, subsequently adjusted to a pH of 7.4 with 1 M HCl, and diluted in 1×PBS. The stock solutions (CoPPIX=2 mg/ml, biliverdin=3.2 mg/ml, bilirubin=0.5 mg/ml) were aliquoted and kept at −70° C. until used. Light exposure was limited as much as possible.
Induction of HO-1/Administration of biliverdin/bilirubin. When given to the donor, CoPPIX (20 mg/kg) was given 24 hours before islet isolation to induce HO-1 expression. To verify HO-1 expression in different organs after CoPP treatment, tissue samples are collected 24 hours after treatment and snap frozen in liquid nitrogen. Immunohistological analysis of HO-1 expression is performed using an anti-HO-1 antibody. CoPPIX (20 mg/kg) was administrated to the recipient intraperitoneally (i.p.) on day-1, 1, 3, 5 and 7. Biliverdin (50 μmol/kg) or bilirubin (8.5 μmol/kg) was given intraperitoneally to the donor one hour before islet isolation. For the recipient, biliverdin (50 μmol/kg) or bilirubin ([…]) was administered intraperitoneally either daily or twice per day from day-1 until day 13. No further treatment was given afterwards.
Measurement of Glucose level. Glucose levels were tested twice weekly after transplantation. Glucose levels of <200 mg/dl were considered normoglycemic. Grafts were considered rejected when two consecutive glucose levels were >300 mg/dl.
Tolerance test. The first graft was removed from a number of animals that had islets surviving long-term (longer than 100 days) by doing a nephrectomy. Islets syngeneic with the original donor were transplanted under the contralateral kidney capsule without further treatment. If those second transplanted islets also survived longer than 100 days without further treatment, the recipients were considered tolerant.

Structure (SMILES) | mean time to development of loose stool (DSS-colitis) [days] | mean time to bleeding (DSS-colitis) [days] | difference in DAI between CoPP-treated and untreated groups (DSS-colitis; day 2) | difference in DAI between CoPP-treated and untreated groups (DSS-colitis; day 5 (maximum protection)) | colon histology (cryptal structure) (DSS-colitis) | crypt score (DSS-colitis) | disease activity index (DAI) (DSS-colitis; day 7 of DSS) | difference in DAI between CoPP-treated and untreated groups (DSS-colitis; toward the end of the 7 days) | islet allograft survival ([1]; CoPP 20 mg/kg, donor one day before, recipient days −1, 1, 3, 5 and 7) | islet allograft survival ([1]; CoPP, HO-1 induced only in the donor) | acceptance of 2nd graft (DBA/2 islets) in tolerance test ([1]; all five animals, no further treatment) [days] | third party grafts in tolerance test ([1]; n=3) | mean total percent body weight loss (DSS-colitis; day 7 of DSS, i.p. daily from 24 hours before DSS (CoPPIX 5 mg/kg; biliverdin 50 μmol/kg)) [%] | antigen specific tolerance ([1]; long-term survival animals) | long-term surviving islets ([1]; treatment of the recipient only)
C=CC1=C(C)c2cc3[n-]c(cc4nc(cc5[n-]c(cc1n2)c(C)c5CCC(=O)[O-])C(CCC(=O)[O-])=C4C)c(C)c3C=C.[Co+2].[H+].[H+] [CoPP, Cobalt protoporphyrin] | 4.6 | 6.9 | 0.4 | 1.64 | remaining cryptal structures and intact epithelial surface | 2.6 | 2.8 | 1.04 | prolongation of survival in general but also to some islets surviving long-term | prolonged survival and function of the islets in the recipient but also to an occasional long-term surviving graft | > 100 | rejected rapidly | – | – | –
C=CC1=C(C)/C(=C/C2=NC(=C\c3[nH]c(/C=C4\NC(=O)C(C)=C4C=C)c(C)c3CCC(=O)O)/C(CCC(=O)O)=C2C)NC1=O [biliverdin, biliverdin dihydrochloride] | 4.4 | 6.2 | – | – | preserved cryptal structure | 3 | 3.3 | – | – | – | – | – | 16.5 | seen in some | significant percentage of long-term surviving islets
